According to article PMC6263107 (Journal of Enzyme Inhibition and Medicinal Chemistry, 2018):
Where “and” joins values, the source holds several entries; their conditions need not be identical. Equal values may be shown once. Read-outs that look alike come from different tables or passages of the source.

Key:
[1] = Oxygen radical absorbance capacity assay (ORAC-FL); details: ORAC-FL, Trolox equivalents
Procedure: The antioxidant activity of KTs was determined using the ORAC-FL method described by Dávalos et al.[30] using fluorescein as a fluorescent probe with minor modification. Briefly, fluorescein and antioxidant were incubated in a black 96-well microplate (Nunc) for 15 min at 37 °C. The 2,2’-azobis(amidinopropane) dihydrochloride (AAPH) was then added quickly using the built-in injector of Varioskan Flash plate reader (Thermo Scientific).
Results are expressed in the Trolox equivalents (TE) unit in relation to radical scavenging properties of Trolox.

hAChE = target: T1, hAChE (Homo sapiens, UniProt P22303); assay: biochemical
T1 construct: 10 µl of cholinesterase obtained from human erythrocyte hemolyzate, out of blood samples; from tissue; host or cells: human erythrocyte hemolysate from blood samples
T1 sequence (P22303 32-617 isoform P22303-2 limits assumed): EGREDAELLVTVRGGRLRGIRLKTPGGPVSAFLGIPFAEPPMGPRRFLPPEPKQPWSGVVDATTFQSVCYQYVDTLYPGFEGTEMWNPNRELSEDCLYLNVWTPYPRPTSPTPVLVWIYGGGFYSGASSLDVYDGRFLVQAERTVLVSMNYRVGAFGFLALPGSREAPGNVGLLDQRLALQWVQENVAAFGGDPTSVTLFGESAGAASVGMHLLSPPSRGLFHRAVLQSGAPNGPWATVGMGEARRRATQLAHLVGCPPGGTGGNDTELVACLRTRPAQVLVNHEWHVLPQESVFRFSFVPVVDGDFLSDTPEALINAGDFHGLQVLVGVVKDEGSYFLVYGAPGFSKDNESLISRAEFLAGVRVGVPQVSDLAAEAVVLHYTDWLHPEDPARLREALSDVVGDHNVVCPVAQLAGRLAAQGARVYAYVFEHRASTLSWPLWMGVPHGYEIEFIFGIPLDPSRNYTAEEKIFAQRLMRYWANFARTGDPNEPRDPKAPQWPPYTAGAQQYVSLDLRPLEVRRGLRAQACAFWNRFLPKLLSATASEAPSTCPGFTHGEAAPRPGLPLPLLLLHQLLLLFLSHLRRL
Procedure: This blend was preincubated for 5 min and 20 µl of 0.01 M substrate (ATCh or BTCh) was added to initiate the reaction. […] The IC50 values are expressed as a mean ± SEM.
Next, as planned at the beginning of the project, the analysis of the antioxidant capacity of KT 2a–d, 2f–h, and 2l was carried out.

in vitro = format: cell-based; details: human
Procedure: (§1) The culture medium was refreshed after 24 h of incubation and 100 µl of six different concentrations (1–1000 µM) of test compounds or DMSO (0.1%) were then added. The cell viability was monitored by colourimetric assay with 3-[4,5-dimethylthiazol-2-yl]-2,5-diphenyl-tetrazolium bromide (MTT).
(§2) In this sense, all new KTs were submitted to the in vitro cell viability test (MTT assay) using human hepatocellular carcinoma cell line (HepG2)[26], as the most accepted probe to evaluate hepatotoxic effects. For this experiment, six different concentrations from 1 to 1000 µM were used.

EeAChE = EeAChE (Electrophorus electricus, UniProt O42275); assay: biochemical; details: mean ± SEM
Sequence of EeAChE (O42275 24-633): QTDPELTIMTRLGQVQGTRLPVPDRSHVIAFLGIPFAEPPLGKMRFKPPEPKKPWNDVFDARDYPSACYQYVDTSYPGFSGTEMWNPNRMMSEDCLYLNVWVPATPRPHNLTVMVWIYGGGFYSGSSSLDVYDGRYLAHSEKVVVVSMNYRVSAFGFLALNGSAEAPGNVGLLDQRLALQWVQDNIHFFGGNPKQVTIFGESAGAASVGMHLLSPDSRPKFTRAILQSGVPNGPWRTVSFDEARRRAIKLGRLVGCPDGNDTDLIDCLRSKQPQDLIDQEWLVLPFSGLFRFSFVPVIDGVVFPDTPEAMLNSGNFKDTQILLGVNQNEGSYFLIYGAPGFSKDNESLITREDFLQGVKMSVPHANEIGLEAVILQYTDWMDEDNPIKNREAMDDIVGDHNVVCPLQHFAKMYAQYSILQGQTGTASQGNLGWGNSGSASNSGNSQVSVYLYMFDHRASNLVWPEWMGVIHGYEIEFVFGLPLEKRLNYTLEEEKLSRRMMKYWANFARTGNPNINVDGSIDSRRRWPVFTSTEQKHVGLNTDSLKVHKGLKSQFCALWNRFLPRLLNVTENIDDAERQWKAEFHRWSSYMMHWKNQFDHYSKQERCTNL
Procedure: (§3) Ellman’s protocol was followed to perform the anticholinesterasic activity. Briefly, the reaction was carried out in a final volume of 3 ml of a phosphate-buffered solution (0.1 M) at pH =8.0 containing (2.625 µl, 0.35 mM) of 5,5’-dithiobis-2-nitrobenzoic acid (DTNB), 40 µl 1% w/v Bovine Albumin Serum phosphate-buffered solution (BSA), (29 µl, 0.035 U/ml) of EeAChE or (60 µl, 0.05 U/ml) of eqBuChE, and 3 µl of tested compound, which were incubated for 10 min. Then, the acetylthiocholine iodide or butyrylthiocholine was added, and the reaction was incubated for additional 15 min. The activity in absence of compound was used as control.

eqBuChE = target: T2, eqBuChE (Equus caballus, UniProt P81908); assay: biochemical; details: for IC50: mean ± SEM; for inhibition at 10 µM: Table 2 footnote b
T2 construct: serum horse BuChE (eqBuChE); from tissue; host or cells: horse serum
T2 sequence (P81908 whole entry): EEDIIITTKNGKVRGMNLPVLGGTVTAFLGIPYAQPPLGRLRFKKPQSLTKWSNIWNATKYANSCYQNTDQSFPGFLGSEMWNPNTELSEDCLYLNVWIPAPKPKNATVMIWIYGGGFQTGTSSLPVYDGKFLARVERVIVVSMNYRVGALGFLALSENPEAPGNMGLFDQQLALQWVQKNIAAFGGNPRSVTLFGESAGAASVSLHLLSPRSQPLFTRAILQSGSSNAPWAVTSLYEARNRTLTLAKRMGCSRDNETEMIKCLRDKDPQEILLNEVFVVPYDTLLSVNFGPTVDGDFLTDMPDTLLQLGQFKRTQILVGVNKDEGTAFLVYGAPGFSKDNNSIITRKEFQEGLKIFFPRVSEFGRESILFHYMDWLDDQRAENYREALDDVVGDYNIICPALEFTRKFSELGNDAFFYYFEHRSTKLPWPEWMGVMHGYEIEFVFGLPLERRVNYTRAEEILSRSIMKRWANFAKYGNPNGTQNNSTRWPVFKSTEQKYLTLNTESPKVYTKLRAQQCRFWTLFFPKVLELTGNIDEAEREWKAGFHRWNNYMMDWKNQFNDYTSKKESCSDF
Procedure: as §3

HepG2 cells = assay: in vitro; format: cell-based; details: concentrations up to 1000 µM
Procedure: as §1, §2

SH-SY5Y cells [2] = assay: Neuroprotection against oligomycin/rotenone-induced cell death (MTT); format: cell-based, human; details: O 10 µM / R 30 µM
Procedure: (§4) SH-SY5Y cell culture and treatment with compounds 2b–d and 2f. The cultures of human SH-SY5Y neuroblastoma cells kept under a CO2/air (5%/95%) humidified atmosphere at 37 °C for 24 h were treated with 100 µl of the test compounds or DMSO (0.1%) in DMEM/F12 (1:1) medium supplemented with 1% fetal bovine serum, 1X non-essential amino acids, 100 units/ml penicillin and 10 mg/ml streptomycin. Treatment medium was renewed every day for up to 48 h of treatment. MTT assay was then performed.
(§5) SH-SY5Y cells were seeded in 96-well culture plates at a density of 8 × 10^4 cells per well in DMEM/F12 (1:1) medium supplemented with 10% fetal bovine serum, 1X non-essential amino acids, 100 units/mL penicillin and 10 mg/mL streptomycin (Dutscher, France). After 24 h of incubation, the cultures were treated with 100 µl of the test compounds or DMSO (0.1%) in the same medium. Following 24 h, the cells were co-incubated with oligomycin A (10 µM)/rotenone (30 µM) (Sigma, France) or Aβ 1–40 (30 µM) with or without the tested compounds 2b–d and 2f at nontoxic concentrations against cells for an additional period of 24 h. MTT assay was then performed to determine the % of cell viability.
(§6) The ability to prevent the human neuroblastoma cell line SH-SY5Y cell death induced by toxic insults such as Αβ 1–40, implicated in ROS production and apoptosis-related signalling pathways, and oligomycin/rotenone (O/R)[39], was then assayed to determine the neuroprotective capacity of the four less hepatotoxic KTs 2b–d and 2f at nontoxic concentration against SH-SY5Y 3 and 10 µM, using melatonin and KA as reference molecules. For the evaluation of the neuroprotective effect, the cytotoxicity of O/R (10 µM/30 µM) on SH-SY5Y cell viability was determined as well as the toxicity of the selected KTs 2b–d and 2f at.

SH-SY5Y cells [3] = assay: Neuroprotection against Aβ1–40 peptide-induced cell death (MTT); format: cell-based, human; details: for Aβ1–40 (%) neuroprotection: Aβ 1–40 30 µM
Procedure: as §4, §5, §6

SH-SY5Y cells [4] = tested on: SH-SY5Y cells; parameters: method as in PMID 27736061; details: O 10 µM / R 30 µM, cited from earlier work
SH-SY5Y cells [5] = tested on: SH-SY5Y cells; parameters: method as in PMID 27736061; details: Aβ 1–40 30 µM, cited from earlier work
[6] = HepG2 cells, 1 µM, percent of cell viability vs DMSO-treated control, read-out: HepG2 cell viability
[7] = HepG2 cells, 3 µM, percent of cell viability vs DMSO-treated control, read-out: HepG2 cell viability
[8] = HepG2 cells, 10 µM, percent of cell viability vs DMSO-treated control, read-out: HepG2 cell viability
[9] = HepG2 cells, 30 µM, percent of cell viability vs DMSO-treated control, read-out: HepG2 cell viability
[10] = HepG2 cells, 100 µM, percent of cell viability vs DMSO-treated control, read-out: HepG2 cell viability
[11] = HepG2 cells, 300 µM, percent of cell viability vs DMSO-treated control, read-out: HepG2 cell viability
[12] = HepG2 cells, 1000 µM, percent of cell viability vs DMSO-treated control, read-out: HepG2 cell viability

Compound | ORAC [1] | viability at 1 µM (in vitro; [6]) [%] | viability at 3 µM (in vitro; [7]) [%] | viability at 10 µM (in vitro; [8]) [%] | viability at 30 µM (in vitro; [9]) [%] | viability at 100 µM (in vitro; [10]) [%] | viability at 300 µM (in vitro; [11]) [%] | viability at 1000 µM (in vitro; [12]) [%] | IC50 (EeAChE) [µM] | IC50 (eqBuChE) [µM] | also measured
COc1cc(/C=C/C(=O)O)ccc1O [FA, ferulic acid, reference compound] | 3.74±0.22 TE and 3.74 TE |  |  |  |  |  |  |  |  |  | 
Nc1c2c(nc3c1C(c1ccccc1)c1oc(CO)cc(=O)c1O3)CCCC2 (stereo not drawn) [KT2a] | 2.58±0.22 TE and 2.58 TE | 96.8 ± 1 | 94.9 ± 2.9 | 99.3 ± 1.7 | 105 ± 5.3 | 108 ± 5 | 95 ± 3.4 | 50.3 ± 5.7 | 3.3 ± 0.09 | 12.15 ± 0.09 | inhibition at 10 µM (hAChE; at 10 μM, Table 2 footnote b): < 50%
Cc1ccc(C2c3oc(CO)cc(=O)c3Oc3nc4c(c(N)c32)CCCC4)cc1 (stereo not drawn) [KT2b] | 2.96±0.18 TE | 105 ± 3.1 | 110 ± 3.2 | 105 ± 1.9 | 107 ± 2.9 | 113 ± 8.4 | 108 ± 5.7 | 87.9 ± 5.2 | 1.4 | 10.09 ± 0.09 | IC50 (hAChE; mean ± SEM): 13.7 ± 1.7 µM; HepG2 toxicity (HepG2 cells): no significant toxicity; O/R (%) neuroprotection (SH-SY5Y cells [2]; compound 3 µM): 19.66 ± 0.07%; O/R (%) neuroprotection (SH-SY5Y cells [2]; compound 10 µM): 3.65 ± 0.07%; Aβ1–40 (%) neuroprotection (SH-SY5Y cells [3]; compound 3 µM): 27.85 ± 0.15 %; Aβ1–40 (%) neuroprotection (SH-SY5Y cells [3]; compound 10 µM): np; neuroprotective activity (SH-SY5Y cells [3]; on any of the toxic insults investigated (O/R, Aβ 1–40)): very poor neuroprotective activity
COc1ccccc1C1c2oc(CO)cc(=O)c2Oc2nc3c(c(N)c21)CCCC3 (stereo not drawn) [KT2c] | 6.05±0.41 TE and 6.05 TE | 94.7 ± 2.4 | 103 ± 2.8 | 99 ± 1.1 | 98.2 ± 2.2 | 96.1 ± 1.5 | 88.5 ± 7.1 | 70.7 ± 7.7 | 2.39 ± 0.02 |  | inhibition at 10 µM (hAChE; at 10µM, Table 1S footnote c): < 50%; O/R (%) neuroprotection (SH-SY5Y cells [2]; compound 3 µM): 12.18 ± 0.08%; O/R (%) neuroprotection (SH-SY5Y cells [2]; compound 10 µM): 16.56 ± 0.02%; Aβ1–40 (%) neuroprotection (SH-SY5Y cells [3]; compound 3 µM): np; Aβ1–40 (%) neuroprotection (SH-SY5Y cells [3]; compound 10 µM): np; inhibition at 10 µM (eqBuChE): < 50%
COc1ccc(C2c3oc(CO)cc(=O)c3Oc3nc4c(c(N)c32)CCCC4)cc1 (stereo not drawn) [KT2e] | 4.46±0.27 TE | 95.5 ± 5.5 | 96.1 ± 7.1 | 95.9 ± 5.6 | 98.3 ± 3.8 | 86.1 ± 3.8 | 70.9 ± 4.5 | 41.7 ± 3 | 1.14 ± 0.02 | 7.57 ± 0.13 | 
Nc1c2c(nc3c1C(c1ccccc1F)c1oc(CO)cc(=O)c1O3)CCCC2 (stereo not drawn) [KT2f] | 3.85±0.42 TE | 108 ± 6.2 | 96.1 ± 2.5 | 99.2 ± 2.8 | 102 ± 7.1 | 101 ± 9.2 | 95.3 ± 4.1 | 64 ± 8 | 2.11 ± 0.01 | 6.69 ± 0.1 | inhibition at 10 µM (hAChE; at 10 μM, Table 2 footnote b): < 50%; O/R (%) neuroprotection (SH-SY5Y cells [2]; compound 3 µM): 16.50 ± 0.07%; O/R (%) neuroprotection (SH-SY5Y cells [2]; compound 10 µM): np; Aβ1–40 (%) neuroprotection (SH-SY5Y cells [3]; compound 3 µM): 25.10 ± 0.06 %; Aβ1–40 (%) neuroprotection (SH-SY5Y cells [3]; compound 10 µM): 4.1 ± 0.04%
Nc1c2c(nc3c1C(c1cccc(F)c1)c1oc(CO)cc(=O)c1O3)CCCC2 (stereo not drawn) [KT2g] | 4.34±0.17 TE | 101 ± 7.1 | 96.5 ± 7.4 | 99.1 ± 3.8 | 109 ± 6.1 | 103 ± 6.4 | 90.5 ± 9.6 | 62.6 ± 9.7 | 2.14 ± 0.12 | 4.54 ± 0.2 | 
Nc1c2c(nc3c1C(c1ccc(F)cc1)c1oc(CO)cc(=O)c1O3)CCCC2 (stereo not drawn) [KT2h] | 4.69±0.18 TE | 97.4 ± 2.3 | 95.9 ± 3.8 | 100 ± 1.5 | 101.4 ± 0.6 | 102 ± 1.8 | 87.2 ± 6.7 | 55.3 ± 6 | 3.44 ± 0.04 |  | inhibition at 10 µM (eqBuChE): < 50%
Nc1c2c(nc3c1C(c1ccccc1Cl)c1oc(CO)cc(=O)c1O3)CCCC2 (stereo not drawn) [KT2i] | 4.84±0.06 TE | 98.6 ± 1.4 | 100 ± 1.9 | 99.4 ± 1.2 | 105 ± 2.6 | 95.2 ± 4.7 | 64.4 ± 6.3 | 23.1 ± 6 | 0.76 ± 0.09 | 8.54 ± 0.12 | 
Nc1c2c(nc3c1C(c1cccc(Cl)c1)c1oc(CO)cc(=O)c1O3)CCCC2 (stereo not drawn) [KT2j] | 4.67±0.31 TE | 97.6 ± 2 | 101 ± 5.4 | 105 ± 5.5 | 99.6 ± 2.4 | 102 ± 6.9 | 52.7 ± 8.3 | 14.5 ± 6.4 | 0.82 ± 0.05 | 4.19 ± 0.11 | 
Nc1c2c(nc3c1C(c1cccc(Br)c1)c1oc(CO)cc(=O)c1O3)CCCC2 (stereo not drawn) [KT2k] | 2.61±0.11 TE | 101 ± 4.8 | 104 ± 8.9 | 94.9 ± 2.6 | 95.8 ± 2.5 | 101 ± 3.1 | 60.1 ± 10.4 | 37.2 ± 5.9 | 0.74 ± 0.08 | 3.9 ± 0.09 | 
Nc1c2c(nc3c1C(c1c(Cl)cccc1Cl)c1oc(CO)cc(=O)c1O3)CCCC2 (stereo not drawn) [KT2l] | 6.14±0.40 TE and 6.14 TE | 99.9 ± 2.7 | 102 ± 2.3 | 102 ± 2.6 | 99.9 ± 3.2 | 88.9 ± 8 | 68.3 ± 9.3 | 50.5 ± 7.5 | 2.12 ± 0.09 |  | inhibition at 10 µM (eqBuChE): < 50%
COc1ccc2[nH]cc(CCNC(C)=O)c2c1 [Melatonin, melatonin] |  |  |  |  |  |  |  |  |  |  | O/R (%) neuroprotection (SH-SY5Y cells [4]; compound 1 µM): 50.1 ± 3.42 %; O/R (%) neuroprotection (SH-SY5Y cells [4]; compound 3 µM): 59.1 ± 4.50 %; Aβ1–40 (%) neuroprotection (SH-SY5Y cells [5]; compound 1 µM): 35.5 ± 4.1 %; Aβ1–40 (%) neuroprotection (SH-SY5Y cells [5]; compound 3 µM): 60.2 ± 3.57 %
Nc1c2c(nc3ccccc13)CCCC2 [Tacrine, tacrine, reference compound] | 0.2 ± 0.1 TE |  |  |  |  |  |  |  |  |  | viability at 1 µM (in vitro): 112 ± 4%; viability at 3 µM (in vitro): 114 ± 4.8%; viability at 10 µM (in vitro): 108 ± 3.4%; viability at 30 µM (in vitro): 110 ± 4.2%; viability at 100 µM (in vitro): 102 ± 2.4%; viability at 300 µM (in vitro): 42.4 ± 2%; viability at 1000 µM (in vitro): 10.9 ± 2%
